US12054471B2, “Thiocycloheptyne derivatives and their use” (Cristal Delivery B.V., priority 2018, dated 2024)

Experiments:
[1] = Reaction kinetics of model click reaction with benzylazide, measured by NMR (CDCl3); type: physicochemical
Experimental: The alkyne (TMTSHI or BCN-OH) was reacted with 1.3 eq benzylazide and reaction kinetics were measured using NMR (CDCl3). Conversion of TMTHSI with benzyl azide reached 79% after 225 seconds, the reaction with BCN-OH took about 40-fold longer (9312 seconds). The reaction conversion (%) is calculated based on triazole signals, taking the plateau of triazole signal at the end of reaction as 100% level=when all TMTHSI or BCN-OH fully reacted with benzylazide. The results of the measurements are included in FIG. 17A.

[2] = Reaction kinetics with benzylazide monitored by QTOF-ESI mass spectrometry to determine rate constant kt; type: physicochemical; conditions: 1.0 eq benzylazide, ACN/water/acetic acid (3:1:0.01%), MS
Experimental: The kt value for the conversion of benzylazide with BCN-OH and TMTHSI was investigated by monitoring the reactions via mass spectrometry. In this study, QTOF mass spectrometry with an ESI source coupled to it, was utilized as a method of measurements. In detail, the alkyne (TMTSHI or BCN-OH in ACN/water/acetic acid (3:1:0.01%) was reacted with 1.0 eq benzylazide and reaction kinetics were measured using MS. The results of the measurements are included in FIG. 55. The measured kt value for TMTHSI in the reaction with benzylazide is 0.83 M^−1S^−1, which is approximately 7 times faster than BCN-OH (0.12 M^−1S^−1).

[3] = Storage stability as a powder, checked by 1H-NMR and LC/MS; type: physicochemical; conditions: stored as a powder at both light and dark locations under atmospheric pressure; 1H-NMR and LC/MS (SC_BASE)
Description: TMTHSI was proven to be stable during storage.

[4] = Dommerholt et al.; cited from earlier work

| compound still in tact after storage [3] | Structure (SMILES) | time to reach 79% conversion with benzyl azide ([1]; 1.3 eq benzylazide, CDCl3, NMR) | kt value in the reaction with benzylazide [2] | other results |
| --- | --- | --- | --- | --- |
| – | OCC1[C@H]2CCC#CCC[C@@H]12 (some centres unmarked) [BCN-OH, reference compound] | 9312 s | 0.12 M^−1S^−1 | reaction time relative to TMTHSI (fold longer) ([1]; 1.3 eq benzylazide, CDCl3, NMR): about 40 fold |
| ≥ 10 months | CC1(C)C#CC(C)(C)CS(=N)(=O)C1 [Compound 3, 1-imino-3,3,6,6-tetramethyl-4,5-didehydro-2,3,6,7-tetrahydro-1H-1λ^6-thiepine 1-oxide] | 225 s | 0.83 M^−1S^−1 | Conversion with benzyl azide ([1]; after 225 seconds, 1.3 eq benzylazide, CDCl3, NMR, based on triazole signals): 79%; comparison of reaction kinetics with BCN-OH (FIG. 17A) ([1]; reaction with benzylazide, NMR): significantly faster than BCN-OH; rate relative to BCN-OH (times faster) [2]: approximately 7 times |
| ≥ 4 months | CC1(C)C#CC(C)(C)CS(=O)(=NC(=O)ON2C(=O)CCC2=O)C1 [Compound 12, 2,5-dioxopyrrolidin-1-yl (3,3,6,6-tetramethyl-1-oxido-4,5-didehydro-2,3,6,7-tetrahydro-1λ^6-thiepan-1-ylidene)carbamate] | – | – | – |
| – | CC1(C)C#CC(C)(C)CSC1 [TMTH, 3,3,6,6-tetramethylthiacycloheptyne] | – | – | stability of TMTH [4]: poor stability |
